Source: patent publication US20100210532A1, “USE OF NEUROPEPTIDE SF, ALONE OR IN COMBINATION WITH GLP-2, AS A THERAPEUTIC AGENT” (priority 2007, published 2010)
Where no end group is shown, it is not given here.

Key:
HIV-1IIIB = test: HIV-1 antiviral assay in CEM-SS cells (MTS readout); details: positive controls of the HIV-1 assay
[1] = tested on: Primary Human endothelial cells (HUVEC); test: Endothelial cell migration assay; assay type: cell-based; details: 10 micrograms per ml, 22 hours
HUVEC = test: Endothelial tube formation assay; assay type: cell-based, human; details: 10 micrograms per ml, 20 hours
Protocol: The endothelial tube formation assay is based on the ability of endothelial cells to form three-dimensional capillary-like tubular structures when cultured on a gel of basement membrane extract. The endothelial tube formation assay represents a powerful model for studying inhibition and induction of angiogenesis. Pre-labeled HUVEC with Calcein AM were seeded in a 96-well culture plate coated with extracellular metrix (Chemicon international Cat. ECM625) and treated with test peptides-10 micrograms per ml-in full growth medium. […] control was vehicle only. […] Duplicate wells for each treatment were photographed and quantitatevily analyzed for an average tubule length using image analysis software ImageProPlus. Raw data were expressed as average tubule […]±standard deviation. Statistic p values were computed using the Student's t-test.

[2] = tested on: Tumor Necrosis Factor-α (TNF-α); test: Th1/Th2 cytokine profiling assay, TNF-α; assay type: cell-based, mouse; details: 10 micrograms per ml, Ovalbumin-restimulated Balb/c spleen cells, 72 hours; for production of TNF-alpha in murine spleen cells, induced by: combination 0.95 mole peptide 1 and 1.05 mole peptide 2
Text: (§1) The Balb/c mice (originated in 1923, it is a popular strain and is used in many different research disciplines. […] On day 50, spleens of the mice were harvested (3 weeks after last boost with Ovalbumin). […] This kit can be used to measure Interleukin-2 (IL-2), Interleukin-4 (IL-4), Interleukin-5 (IL-5), Interferon-γ (IFN-γ), and Tumor Necrosis Factor-α (TNF-α) protein levels in a single sample. The kit performance has been optimized for analysis of physiologically relevant concentrations ([…] levels) of specific cytokine proteins in tissue culture supernatants and serum samples.

Interleukin-2 (IL-2) = test: Th1/Th2 cytokine profiling assay, IL-2; assay type: cell-based, mouse; details: 10 micrograms per ml, Ovalbumin-restimulated Balb/c spleen cells, 72 hours; for production of IL-2 in murine spleen cells, induced by: combination 0.95 mole peptide 1 and 1.05 mole peptide 2
Text: as §1

Interleukin-5 (IL-5) = test: Th1/Th2 cytokine profiling assay, IL-5; assay type: cell-based, mouse; details: 10 micrograms per ml, Ovalbumin-restimulated Balb/c spleen cells, 72 hours; for change of the production of IL-5 in murine spleen cells: combination 0.95 mole peptide 1 and 1.05 mole peptide 2
Text: as §1

Interleukin-4 (IL-4) = test: Th1/Th2 cytokine profiling assay, IL-4; assay type: cell-based, mouse; details: 10 micrograms per ml, Ovalbumin-restimulated Balb/c spleen cells, 72 hours; for production of IL-4 in murine spleen cells, induced by: combination 0.95 mole peptide 1 and 1.05 mole peptide 2
Text: as §1

Human A549 cells = test: Apoptosis prevention assay (C2 ceramide, Annexin-5); assay type: cell-based; details: 10 micrograms per ml, 30 min pretreatment
Interferon-γ (IFN-γ) = test: Th1/Th2 cytokine profiling assay, IFN-γ; assay type: cell-based, mouse; details: 10 micrograms per ml, Ovalbumin-restimulated Balb/c spleen cells, 72 hours
Text: as §1

HCMV strain AD169 = test: HCMV plaque formation assay in MRC-5 cells; details: for inhibition of HCMV plaque formation as compared to the virus control experiment: 10 micrograms per ml, MRC-5 cells, 7-10 days, combination 0.95 mole peptide 1 and 1.05 mole peptide 2
[3] = tested on: hepatitis B virus (HBV) ayw strain; test: HBV experimental assay system, HepG2-2.2.15 cells, secreted HBV DNA by TaqMan PCR; assay type: cell-based; details: 10 micrograms per ml, six days, combination 0.95 mole peptide 1 and 1.05 mole peptide 2

| Compound | antiviral activity of positive control compounds (HIV-1IIIB) | inhibition of the migration of human endothelial cells [1] | inhibition of the tube formation of human endothelial cells (HUVEC) [%] | TNF-a spleen cells; TH1 response (% of control) [2] | production of TNF-alpha in murine spleen cells, induced by [2] | IL-2 spleen cells (% of control) (Interleukin-2 (IL-2)) | production of IL-2 in murine spleen cells, induced by (Interleukin-2 (IL-2)) | IL-5 spleen cells; TH2 response (% of control) (Interleukin-5 (IL-5)) | change of the production of IL-5 in murine spleen cells (Interleukin-5 (IL-5)) | IL-4 spleen cells; TH2 response (% of control) (Interleukin-4 (IL-4)) | production of IL-4 in murine spleen cells, induced by (Interleukin-4 (IL-4)) | reduction of the ceramide-induced apoptosis on human lung cells (Human A549 cells) | IFNγ spleen cells; TH1 response (% of control) (Interferon-γ (IFN-γ)) | production of IFN-γ in murine spleen cells, induced by (Interferon-γ (IFN-γ); combination 0.95 mole peptide 1 and 1.05 mole peptide 2) [%] | inhibition of HCMV plaque formation as compared to the virus control experiment (HCMV strain AD169) [%] | inhibition of HBV replication as compared to the virus control infection [3] [%] | production of IFN-γ in murine spleen cells, decreased by (Interferon-γ (IFN-γ)) [%] | antiviral activity of positive control compound (HCMV strain AD169; positive control of the HCMV assay) |
| --- | --- | --- | --- | --- | --- | --- | --- | --- | --- | --- | --- | --- | --- | --- | --- | --- | --- | --- |
| Cc1cn([C@H]2C[C@H](N=[N+]=[N-])[C@@H](CO)O2)c(=O)[nH]c1=O [AZT] | expected levels of antiviral activity |  |  |  |  |  |  |  |  |  |  |  |  |  |  |  |  |  |
| His-Ala-Asp-Gly-Ser-Phe-Ser-Asp-Glu-Met-Asn-Thr-Ile-Leu-Asp-Asn-Leu-Ala-Ala-Arg-Asp-Phe-Ile-Asn-Trp-Leu-Ile-Gln-Thr-Lys-Ile-Thr-Asp-OH [Peptide 2] |  | did not inhibit | 12 | 143.7 % of control | 43.7% | 183.3 % of control | 83.3% | 108.4 % of control | did not significantly change | 104.4 % of control | did not significantly change | did not reduce | 132.7 % of control | 32.7 | 18.8 | 59.2 |  |  |
| CC(C)(C)NC(=O)[C@@H]1CN(Cc2cccnc2)CCN1C[C@@H](O)C[C@@H](Cc1ccccc1)C(=O)N[C@H]1c2ccccc2C[C@H]1O [indinavir] | expected levels of antiviral activity |  |  |  |  |  |  |  |  |  |  |  |  |  |  |  |  |  |
| Ser-Gln-Ala-Phe-Leu-Phe-Gln-Pro-Gln-Arg-Phe-NH2 (SQAFLFQPQRF-NH2) [Peptide 1] |  | 33% | 19 | 106.3 % of control | did not significantly change | 112.4 % of control | did not significantly change | 91.6 % of control | did not significantly change | 242.2 % of control | 142.2% | 16.45% | 68.0 % of control |  | 31.3 | 16.7 | 32.0 |  |
| Nc1nc(O)c2ncn(COC(CO)CO)c2n1 [Ganciclovir, reference compound] |  |  |  |  |  |  |  |  |  |  |  |  |  |  |  |  |  | expected levels of antiviral activity |
